Results published in patent US9139523B2, “5-HT2B receptor antagonists” (Janssen Pharmaceutica, NV, priority 2010, dated 2015).
Read-outs that look alike come from different tables or passages of the source.

How the values were obtained:
[1] = Cardio-hemodynamic, cardio-electrophysiological, EEG and pulmonary effects in ventilated, anesthetized dogs; type: in vivo, dog; conditions: Beagle, plasma, iv, dog, 5-min i.v. infusion
Method: (§1) The animals were anesthetized with a mixture of 0.015 mg/kg i.v. scopolamine and 0.075 mg/kg i.v. lofentanil, and relaxed with succinylcholine (5 mg/kg i.v.) followed by a continuous i.v. infusion of 1.5 mg/kg/h of etomidate and small additional doses of fentanyl (0.025 mg/kg i.v.) were given at 60 min intervals. The animals were ventilated and prepared for measurements of the surface ECG, aortic-, pulmonary- and left ventricular blood pressure, carotid blood flow, monophasic action potential, body temperature, blood gasses and EEG (see Van Deuren et al, J Pharmacol Toxicol Methods; 2009; 60: 11-23). Compound (−)-17 was dissolved in 20% hydroxypropyl-cyclodextrin with NaOH, HCl and mannitol in pyrogen-free water and administered intravenously (1 ml/kg) in increasing doses (0.16, 0.32, 0.63, 1.25, 2.5 and 5 mg/kg) over a period of 5 min at 30-min intervals. Plasma concentrations of Compound (−)-17 were measured before and at the end of each infusion. Corresponding volumes of vehicle were administered according to the same protocol in a second group of animals.

[2] = system: anesthetized dogs (Beagles); experiment: as above; type: in vivo, dog; conditions: for Median plasma level: 5-min i.v. infusion
Method: as §1

## COc1cc(N)c(Cl)cc1C(=O)NC1CCN(CCCOc2ccc(F)cc2)CC1(F)F (single isomer, unassigned) [Compound (−)-17, 4-amino-5-chloro-N-{3,3-difluoro-1-[3-(4-fluorophenoxy)-propyl]-piperidin-4-yl}-2-methoxybenzamide]
[1]; dose 1.25 mg/kg (increasing doses, 30-min intervals), read-out: Median plasma level (Cmax)
  Cmax: 5200 ng/mL
[1]; dose 2.5 mg/kg (increasing doses, 30-min intervals), read-out: Median plasma level (Cmax)
  Cmax: 9550 ng/mL
[1]; dose 5 mg/kg (increasing doses, 30-min intervals; total dose 9.86 mg/kg), read-out: Median plasma level (median Cmax)
  Cmax: 20400 ng/mL
[2]; dog i.v. 0.16 mg/kg @ 5′
  DPP, percentage change relative to vehicle: +3%
  HR, percentage change relative to vehicle: −4%
  LVdp/dtmax, percentage change relative to vehicle: −1%
  MBP, percentage change relative to vehicle: +2%
  PQ, percentage change relative to vehicle: −1%
  QRS, percentage change relative to vehicle: +1%
  QTcV, percentage change relative to vehicle: +2%
  SPP, percentage change relative to vehicle: +2%
[2]; dog i.v. 0.16 mg/kg @ 30′
  DPP, percentage change relative to vehicle: −3%
  HR, percentage change relative to vehicle: −5%
  LVdp/dtmax, percentage change relative to vehicle: +0%
  MBP, percentage change relative to vehicle: +3%
  PQ, percentage change relative to vehicle: −0%
  QRS, percentage change relative to vehicle: +2%
  QTcV, percentage change relative to vehicle: +4%
  SPP, percentage change relative to vehicle: +5%
[2]; dog i.v. 0.32 mg/kg @ 5′
  DPP, percentage change relative to vehicle: +0%
  HR, percentage change relative to vehicle: −5%
  LVdp/dtmax, percentage change relative to vehicle: +0%
  MBP, percentage change relative to vehicle: +5%
  PQ, percentage change relative to vehicle: −2%
  QRS, percentage change relative to vehicle: +3%
  QTcV, percentage change relative to vehicle: +2%
  SPP, percentage change relative to vehicle: +11%
[2]; dog i.v. 0.32 mg/kg @ 30′
  DPP, percentage change relative to vehicle: −8%
  HR, percentage change relative to vehicle: +3%
  LVdp/dtmax, percentage change relative to vehicle: −4%
  MBP, percentage change relative to vehicle: +2%
  PQ, percentage change relative to vehicle: −2%
  QRS, percentage change relative to vehicle: +4%
  QTcV, percentage change relative to vehicle: +1%
  SPP, percentage change relative to vehicle: −3%
[2]; dog i.v. 0.63 mg/kg @ 5′
  DPP, percentage change relative to vehicle: +0%
  HR, percentage change relative to vehicle: −0%
  LVdp/dtmax, percentage change relative to vehicle: −3%
  MBP, percentage change relative to vehicle: +6%
  PQ, percentage change relative to vehicle: +3%
  QRS, percentage change relative to vehicle: +4%
  QTcV, percentage change relative to vehicle: +1%
  SPP, percentage change relative to vehicle: −2%
[2]; dog i.v. 0.63 mg/kg @ 30′
  DPP, percentage change relative to vehicle: −9%
  HR, percentage change relative to vehicle: +4%
  LVdp/dtmax, percentage change relative to vehicle: −2%
  MBP, percentage change relative to vehicle: +2%
  PQ, percentage change relative to vehicle: −0%
  QRS, percentage change relative to vehicle: +1%
  QTcV, percentage change relative to vehicle: +4%
  SPP, percentage change relative to vehicle: −1%
[2]; dog i.v. 1.25 mg/kg @ 5′
  DPP, percentage change relative to vehicle: −7%
  HR, percentage change relative to vehicle: −0%
  LVdp/dtmax, percentage change relative to vehicle: −1%
  MBP, percentage change relative to vehicle: +10%
  PQ, percentage change relative to vehicle: +2%
  QRS, percentage change relative to vehicle: +4%
  QTcV, percentage change relative to vehicle: +2%
  SPP, percentage change relative to vehicle: −1%
[2]; dog i.v. 1.25 mg/kg @ 30′
  DPP, percentage change relative to vehicle: −12%
  HR, percentage change relative to vehicle: −3%
  LVdp/dtmax, percentage change relative to vehicle: −5%
  MBP, percentage change relative to vehicle: +0%
  PQ, percentage change relative to vehicle: +2%
  QRS, percentage change relative to vehicle: +2%
  QTcV, percentage change relative to vehicle: +1%
  SPP, percentage change relative to vehicle: −9%
[2]; dog i.v. 2.5 mg/kg @ 5′
  DPP, percentage change relative to vehicle: +1%
  HR, percentage change relative to vehicle: −5%
  LVdp/dtmax, percentage change relative to vehicle: −8%
  PQ, percentage change relative to vehicle: +6%
  QRS, percentage change relative to vehicle: +2%
  QTcV, percentage change relative to vehicle: −3%
  SPP, percentage change relative to vehicle: −1%
[2]; dog i.v. 2.5 mg/kg @ 30′
  DPP, percentage change relative to vehicle: −24%
  HR, percentage change relative to vehicle: −4%
  LVdp/dtmax, percentage change relative to vehicle: +2%
  MBP, percentage change relative to vehicle: +0%
  PQ, percentage change relative to vehicle: +2%
  QRS, percentage change relative to vehicle: +3%
  QTcV, percentage change relative to vehicle: −1%
  SPP, percentage change relative to vehicle: −15%
[2]; dog i.v. 5 mg/kg @ 5′
  DPP, percentage change relative to vehicle: +17%
  HR, percentage change relative to vehicle: −15%
  LVdp/dtmax, percentage change relative to vehicle: −11%
  PQ, percentage change relative to vehicle: +2%
  QRS, percentage change relative to vehicle: +6%
  QTcV, percentage change relative to vehicle: −3%
  SPP, percentage change relative to vehicle: −10%
[2]; dog i.v. 5 mg/kg @ 30′
  DPP, percentage change relative to vehicle: −5%
  HR, percentage change relative to vehicle: −14%
  LVdp/dtmax, percentage change relative to vehicle: +2%
  MBP, percentage change relative to vehicle: +0%
  QRS, percentage change relative to vehicle: +3%
  QTcV, percentage change relative to vehicle: −2%
  SPP, percentage change relative to vehicle: −7%
[2]; dog, 0.16 up to 5 mg/kg i.v., relative to vehicle
  effect on heart rate, pulmonary artery pressure, LV end diastolic pressure, cardiac output, stroke volume, pressure rate product, PQ and QRS, lung function, body temperature, EEG: no relevant effect
[2]; dog, dose 0.16 mg/kg (increasing doses, 30-min intervals)
  Median plasma level: 725 ng/mL
[2]; dog, dose 0.32 mg/kg (increasing doses, 30-min intervals)
  Median plasma level: 1420 ng/mL
[2]; dog, dose 0.64 mg/kg (increasing doses, 30-min intervals)
  Median plasma level: 2540 ng/mL
[2]; dog, at 2.5 mg/kg i.v.
  LV dp/dtmax/pd: started to decrease
[2]; dog, at 5 mg/kg i.v.
  duration of QTc VDW and QTc VcT: minor decrease
[2]; dog, from 1.25 mg/kg i.v. onwards
  arterial blood pressure, vascular resistance (systemic and common carotid) and Tau: started to increase
